Experimental data taken from US6171809A, “Method and compositions for detecting luciferase biological samples” (priority 1998, dated 2001).
Where no end group is shown, it is not given here.

What was measured:
[1] = molecular target: T1, human beta-2 adrenoceptor (Homo sapiens, UniProt P07550); assay: Compound screening, renilla luciferase readout, CRE/firefly/V2 and CRE/ren/beta2 cells, beta2-adrenoceptor, Example 3; type: cell-based
T1 construct: expressed in transfected cells; host or cells: CHO (Chinese hamster ovary) cells stably carrying a CRE-renilla luciferase reporter
Experimental: (§1) Stable mammalian cell lines transfected with c-AMP responsive reporter genes containing either the firefly or renilla luciferase reporter proteins (CRE-firefly and CRE-ren) were generated.
(§2) These receptors are members of the super family of G-protein coupled receptors which interact with the stimulatory G-protein alpha unit.
Firefly luciferase and/or renilla luciferase producing CHO (Chinese hamster ovary) cells are cultured in tissue culture flasks and grown to 90% confluency. Twenty-four hours before the assay, the cells are quiesced in serum-free medium containing 1 mg/ml BSA (bovine serum albumin). Immediately prior to the assay, cells are removed with HBSS/EDTA (Hanks balanced salt solution containing EDTA), centrifuged and resuspended in 10 ml phenol red-free and serum-free medium supplemented with 1 mg/ml BSA. Next, the cells are plated into a 96 well microtiter plate at 90 μl/well and returned to the incubator. After 1 hour, 10 μl of the test compound, made up in either water or phenol red-free medium, is added. The microplates then are further incubated for 4 hours. Finally, the firefly luciferase detection reagent is made up and 100 μl of this detection solution is added to each well. After 10 minutes, the microplate is counted for firefly luciferase activity. […] The plate is left for 15 minutes in the dark and then counted for renilla luciferase activity. […]

CHO cells = assay: Compound screening, endogenous response of CHO cells (CRE/firefly/V2 and CRE/ren/beta2), Example 3; type: cell-based, Chinese hamster ovary; conditions: for firefly luciferase response (endogenous): firefly luciferase detection reagent; for agonist activity at these cells: CRE/firefly/V2 and CRE/ren/beta2 cells
Experimental: as §1, §2
Firefly luciferase and/or renilla luciferase producing CHO (Chinese hamster ovary) cells are cultured in tissue culture flasks and grown to 90% confluency. Twenty-four hours before the assay, the cells are quiesced in serum-free medium containing 1 mg/ml BSA (bovine serum albumin). Immediately prior to the assay, cells are removed with HBSS/EDTA (Hanks balanced salt solution containing EDTA), centrifuged and resuspended in 10 ml phenol red-free and serum-free medium supplemented with 1 mg/ml BSA. Next, the cells are plated into a 96 well microtiter plate at 90 μl/well and returned to the incubator. After 1 hour, 10 μl of the test compound, made up in either water or phenol red-free medium, is added. The microplates then are further incubated for 4 hours. Finally, the firefly luciferase detection reagent is made up and 100 μl of this detection solution is added to each well. After 10 minutes, the microplate is counted for firefly luciferase activity. Next, to each well, 100 μl/well of 5 μM of coelenterazine in 2 mM EDTA buffer solution is added. The plate is left for 15 minutes in the dark and then counted for renilla luciferase activity.
CRE/firefly/V2 and CRE/ren/beta2 cells were mixed and plated into individual wells of a black 96-well ViewPlate and a range of compounds were applied to the cells.

adenylcyclase [2] = assay: Forskolin dose response, renilla luciferase reporter (CRE-ren CHO cells mixed with CRE-firefly cells), Example 1; type: cell-based, Chinese hamster ovary
Experimental: A kit for the sequential detection of firefly luciferase and renilla luciferase was prepared which consisted of a firefly luciferase assay reagent and a renilla luciferase assay reagent. The renilla luciferase reagent consisted of 5 μM of coelenterazine in 2 mM EDTA buffer with a pH 7.5. Stable mammalian cell lines transfected with c-AMP responsive reporter genes containing either the firefly or renilla luciferase reporter proteins (CRE-firefly and CRE-ren) were generated. Firefly luciferase and/or renilla luciferase producing CHO (Chinese hamster ovary) cells are cultured in tissue culture flasks and grown to 90% confluency. Twenty-four hours before the assay, the cells are quiesced in serum-free medium containing 1 mg/ml BSA (bovine serum albumin). Immediately prior to the assay, cells are removed with HBSS/EDTA (Hanks balanced salt solution containing EDTA), centrifuged and resuspended in 10 ml phenol red-free and serum-free medium supplemented with 1 mg/ml BSA. Next, the cells are plated into a 96 well microtiter plate at 90 μl/well and returned to the incubator. After 1 hour, 10 μl of the test compound, made up in either water or phenol red-free medium, is added. The microplates then are further incubated for 4 hours. Finally, the firefly luciferase detection reagent is made up and 100 μl of this detection solution is added to each well. After 10 minutes, the microplate is counted for firefly luciferase activity. Next, to each well, 100 μl/well of 5 μM of coelenterazine in 2 mM EDTA buffer solution is added. The plate is left for 15 minutes in the dark and then counted for renilla luciferase activity. CRE-ren cells were stimulated with 10 μM forskolin, a compound which directly activates adenylcyclase to cause an increase in the level of […] cAMP. […] The assay plates were counted in a TopCount™ Luminescence Counter (Packard Instrument Company) at 15 or 160 minutes after reagent addition. […] Furthermore, renilla luminescence generated using the composition of this invention, is 10-fold brighter than the firefly luciferase generated light signal.

adenylcyclase [3] = assay: Forskolin dose response, firefly luciferase reporter (CRE-firefly CHO cells mixed with CRE-ren cells), Example 1; type: cell-based, Chinese hamster ovary; conditions: 15 and 160 minutes after reagent addition; FIG. 1
Experimental: A kit for the sequential detection of firefly luciferase and renilla luciferase was prepared which consisted of a firefly luciferase assay reagent and a renilla luciferase assay reagent. The firefly luciferase reagent consisted of AMP, EDTA, firefly luciferin, ATP, DTT, phenylacetic acid and oxalic acid as originally described in U.S. Pat. No. 5,618,682. Stable mammalian cell lines transfected with c-AMP responsive reporter genes containing either the firefly or renilla luciferase reporter proteins (CRE-firefly and CRE-ren) were generated. Firefly luciferase and/or renilla luciferase producing CHO (Chinese hamster ovary) cells are cultured in tissue culture flasks and grown to 90% confluency. Twenty-four hours before the assay, the cells are quiesced in serum-free medium containing 1 mg/ml BSA (bovine serum albumin). […] After 10 minutes, the microplate is counted for firefly luciferase activity. […] The plate is left for 15 minutes in the dark and then counted for renilla luciferase activity. […] The assay plates were counted in a TopCount™ Luminescence Counter (Packard Instrument Company) at 15 or 160 minutes after reagent addition. […] Furthermore, renilla luminescence generated using the composition of this invention, is 10-fold brighter than the firefly luciferase generated light signal.

[4] = molecular target: T1, human beta-2 adrenoceptor; assay: beta2-adrenoceptor dose response, renilla luciferase readout after renilla detection reagent (CRE/ren/beta2 cells mixed with CRE/firefly/V2 cells), Example 2; type: cell-based
Experimental: as §1, §2
Firefly luciferase and/or renilla luciferase producing CHO (Chinese hamster ovary) cells are cultured in tissue culture flasks and grown to 90% confluency. Twenty-four hours before the assay, the cells are quiesced in serum-free medium containing 1 mg/ml BSA (bovine serum albumin). Immediately prior to the assay, cells are removed with HBSS/EDTA (Hanks balanced salt solution containing EDTA), centrifuged and resuspended in 10 ml phenol red-free and serum-free medium supplemented with 1 mg/ml BSA. Next, the cells are plated into a 96 well microtiter plate at 90 μl/well and returned to the incubator. After 1 hour, 10 μl of the test compound, made up in either water or phenol red-free medium, is added. The microplates then are further incubated for 4 hours. Finally, the firefly luciferase detection reagent is made up and 100 μl of this detection solution is added to each well. After 10 minutes, the microplate is counted for firefly luciferase activity. […] The plate is left for 15 minutes in the dark and then counted for renilla luciferase activity.

T1 sequence (P07550 whole entry): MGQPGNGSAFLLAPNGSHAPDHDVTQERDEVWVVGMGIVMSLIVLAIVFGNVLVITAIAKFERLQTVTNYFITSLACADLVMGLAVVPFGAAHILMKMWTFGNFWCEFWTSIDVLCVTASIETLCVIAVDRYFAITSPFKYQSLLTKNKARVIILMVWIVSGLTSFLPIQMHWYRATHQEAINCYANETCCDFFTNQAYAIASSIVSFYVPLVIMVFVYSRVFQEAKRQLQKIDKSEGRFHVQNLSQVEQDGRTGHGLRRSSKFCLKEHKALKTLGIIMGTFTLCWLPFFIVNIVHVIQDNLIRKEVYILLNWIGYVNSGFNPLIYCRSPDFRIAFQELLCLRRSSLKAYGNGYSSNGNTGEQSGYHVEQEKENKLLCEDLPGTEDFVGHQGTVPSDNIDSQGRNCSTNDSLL

Molecule | luminescence signal following addition of renilla luciferase detection reagent [1] | action on CHO cells (conclusion) (CHO cells) | firefly luciferase response (endogenous) (CHO cells) | luminescent signal following addition of renilla luciferase detection reagent (endogenous) (CHO cells) | agonist activity at these cells (CHO cells) | also measured
NC(=O)CC[C@@H]1NC(=O)[C@H](Cc2ccccc2)NC(=O)[C@H](Cc2ccc(O)cc2)NC(=O)CCSSC[C@@H](C(=O)N2CCC[C@H]2C(=O)N[C@H](CCCN=C(N)N)C(=O)NCC(N)=O)NC(=O)[C@H](CC(N)=O)NC1=O [desmopressin] | not significantly above basal | – | – | – | – | –
C=C[C@@]1(C)CC(=O)[C@]2(O)[C@@]3(C)[C@@H](O)CCC(C)(C)[C@@H]3[C@H](O)[C@H](OC(C)=O)[C@@]2(C)O1 [forskolin] | – | act on CHO cells to generate an endogenous response | a firefly luciferase response was obtained | A luminescent signal was maintained | – | renilla luciferase luminometric response (adenylcyclase [2]; 15 minutes after reagent addition): 3.5×10^6; renilla luciferase luminometric response (adenylcyclase [2]; 160 minutes after reagent addition): 1.8×10^6; EC50 for forskolin stimulation of adenyl cyclase (adenylcyclase [2]; renilla response, 15 versus 160 minutes): remains similar; nature of the firefly luminescence (adenylcyclase [3]): identical at 15 and 160 minutes after reagent addition
CC(C)C[C@H](NC(=O)[C@H](CCCCN)NC(=O)[C@H](CCCN=C(N)N)NC(=O)[C@H](C)NC(=O)[C@H](CO)NC(=O)[C@H](CCCCN)NC(=O)[C@H](CCCN=C(N)N)NC(=O)[C@H](C)NC(=O)CNC(=O)[C@@H](NC(=O)[C@H](Cc1ccccc1)NC(=O)CNC(=O)CNC(=O)[C@@H](N)Cc1ccccc1)[C@@H](C)O)C(=O)N[C@@H](C)C(=O)N[C@@H](CC(N)=O)C(=O)N[C@@H](CCC(N)=O)C(=O)O [nociceptin] | – | – | – | – | not agonists active at these cells | –
NCCc1c[nH]c2ccc(O)cc12 [serotonin] | – | – | – | – | not agonists active at these cells | –
NC(=O)CC[C@@H]1NC(=O)[C@H](Cc2ccccc2)NC(=O)[C@H](Cc2ccc(O)cc2)NC(=O)[C@@H](N)CSSC[C@@H](C(=O)N2CCC[C@H]2C(=O)N[C@@H](CCCN=C(N)N)C(=O)NCC(N)=O)NC(=O)[C@H](CC(N)=O)NC1=O [vasopressin] | not significantly above basal | – | – | – | – | stimulation of renilla luminescence ([4]; FIG. 2): did not stimulate renilla luminescence; response curve after subsequent addition of renilla detection reagent ([4]; renilla detection reagent added to the same cells): flattened
thyro-calcitonin (CGNLSTCMLGTYTQDFNKFHTFPQTAIGVGAP; ends and bridges not checked; cysteine pairing not given here; UniProt P01258 85-116, looked up) [CHO cells express an endogenous calcitonin receptor] | – | act on CHO cells to generate an endogenous response | a firefly luciferase response was obtained | A luminescent signal was maintained | – | –
